According to patent US20230085307A1, “PYRIDAZINONE COMPOUND AND HERBICIDE” (NISSAN CHEMICAL CORPORATION, priority 2019, published 2023):

Assays:
lambsquarters [1] = test: Test Example 5: herbicidal effect by foliage application, plastic box (Table 20, symbol O); assay type: in vivo, lambsquarters (Chenopodium album); settings: foliage application, 320 g/ha, three weeks after application
In short: (§1)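 Foliar spray test: emulsion formulation diluted in water to a set application rate, sprayed onto 14-day-old plants raised in diluvial soil at 25° C to 30° C under glass. Both herbicidal effect and crop effect rated visually three weeks later.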

redroot pigweed = test: Test Example 4: herbicidal effect by soil treatment (Table 19, symbol N); assay type: in vivo, redroot pigweed (Amaranthus retroflexus); settings: amount of applied herbicide 320 g/ha
In short: (§2)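 Herbicidal effect was rated 3 weeks after treatment, using the scoring criteria of an earlier test. The compound, formulated as an emulsion and diluted in water to a set herbicide amount, had been sprayed uniformly on soil over freshly sown seeds. Growth took place in a greenhouse at 25° C. to 30° C.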

Japanese bulrush = test: Test Example 1: herbicidal activity, application before weed generation under submerged conditions (Table 16, symbol B); assay type: in vivo, Japanese bulrush (Schoenoplectus juncoides); settings: amount of applied herbicide 320 g/ha
In short: (§3)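 Alluvial soil was flooded to 4 cm depth, weed seeds were sown mixed and 2.5-leaf rice seedlings were transplanted. On sowing day, the compound's emulsion, diluted in water to a set dose, was applied to the water surface. Plants grew at 25–30 °C and were scored 0–5 after three weeks.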

rice flat sedge = test: Test Example 3: herbicidal effect by foliage application, Wagner pot (Table 18, symbol E); assay type: in vivo, rice flat sedge (Cyperus iria); settings: 320 g/ha
In short: (§4)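 Plants were sown in alluvial soil held under 0.1–0.5 cm standing water and grown 14 days in a greenhouse at 25–30 °C. An emulsifiable formulation, water-diluted to the set dose, was then sprayed onto the foliage, and effects were scored three weeks later using previously defined criteria.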

velvetleaf [2] = test: Test Example 5: herbicidal effect by foliage application, plastic box (Table 20, symbol M); assay type: in vivo, velvetleaf (Abutilon theophrasti); settings: foliage application, 320 g/ha, three weeks after application
In short: as §1

persian speedwell [3] = test: Test Example 4: herbicidal effect by soil treatment (Table 19, symbol R); assay type: in vivo, Persian speedwell (Veronica persica); settings: amount of applied herbicide 320 g/ha
In short: as §2

wild oat [4] = test: Test Example 4: herbicidal effect by soil treatment (Table 19, symbol I); assay type: in vivo, wild oat (Avena fatua); settings: amount of applied herbicide 320 g/ha
In short: as §2

southern crabgrass [5] = test: Test Example 4: herbicidal effect by soil treatment (Table 19, symbol F); assay type: in vivo, southern crabgrass (Digitaria ciliaris); settings: amount of applied herbicide 320 g/ha
In short: as §2

barnyard grass [6] = test: Test Example 5: herbicidal effect by foliage application, plastic box (Table 20, symbol H); assay type: in vivo, barnyard grass (Echinochloa crus-galli); settings: foliage application, 320 g/ha, three weeks after application
In short: as §1

chickweed = test: Test Example 4: herbicidal effect by soil treatment (Table 19, symbol P); assay type: in vivo, common chickweed (Stellaria media); settings: amount of applied herbicide 320 g/ha
In short: as §2

late watergrass = test: Test Example 1: herbicidal activity, application before weed generation under submerged conditions (Table 16, symbol A); assay type: in vivo, late watergrass (Echinochloa oryzicola); settings: amount of applied herbicide 320 g/ha
In short: as §3

Chinese sprangletop = test: Test Example 3: herbicidal effect by foliage application, Wagner pot (Table 18, symbol D); assay type: in vivo, chinese sprangletop (Leptochloa chinensis); settings: 320 g/ha
In short: as §4

southern crabgrass [7] = test: Test Example 5: herbicidal effect by foliage application, plastic box (Table 20, symbol F); assay type: in vivo, southern crabgrass (Digitaria ciliaris); settings: foliage application, 320 g/ha, three weeks after application
In short: as §1

blackgrass [8] = test: Test Example 4: herbicidal effect by soil treatment (Table 19, symbol J); assay type: in vivo, blackgrass (Alopecurus myosuroides); settings: amount of applied herbicide 320 g/ha
In short: as §2

wild oat [9] = test: Test Example 5: herbicidal effect by foliage application, plastic box (Table 20, symbol I); assay type: in vivo, wild oat (Avena fatua); settings: foliage application, 320 g/ha, three weeks after application
In short: as §1

barnyard grass [10] = test: Test Example 4: herbicidal effect by soil treatment (Table 19, symbol H); assay type: in vivo, barnyard grass (Echinochloa crus-galli); settings: amount of applied herbicide 320 g/ha
In short: as §2

windgrass [11] = test: Test Example 4: herbicidal effect by soil treatment (Table 19, symbol L); assay type: in vivo, windgrass (Apera spica-venti); settings: amount of applied herbicide 320 g/ha
In short: as §2

Italian ryegrass [12] = test: Test Example 4: herbicidal effect by soil treatment (Table 19, symbol K); assay type: in vivo, Italian ryegrass (Lolium multiflorum); settings: amount of applied herbicide 320 g/ha
In short: as §2

velvetleaf [13] = test: Test Example 4: herbicidal effect by soil treatment (Table 19, symbol M); assay type: in vivo, velvetleaf (Abutilon theophrasti); settings: amount of applied herbicide 320 g/ha
In short: as §2

barnyard grass [14] = test: Test Example 3: herbicidal effect by foliage application, Wagner pot (Table 18, symbol H); assay type: in vivo, barnyard grass (Echinochloa crus-galli); settings: 320 g/ha
In short: as §4

blackgrass [15] = test: Test Example 5: herbicidal effect by foliage application, plastic box (Table 20, symbol J); assay type: in vivo, blackgrass (Alopecurus myosuroides); settings: foliage application, 320 g/ha, three weeks after application
In short: as §1

green foxtail [16] = test: Test Example 5: herbicidal effect by foliage application, plastic box (Table 20, symbol G); assay type: in vivo, green foxtail (Setaria viridis); settings: foliage application, 320 g/ha, three weeks after application
In short: as §1

lambsquarters [17] = test: Test Example 4: herbicidal effect by soil treatment (Table 19, symbol O); assay type: in vivo, lambsquarters (Chenopodium album); settings: amount of applied herbicide 320 g/ha
In short: as §2

persian speedwell [18] = test: Test Example 5: herbicidal effect by foliage application, plastic box (Table 20, symbol R); assay type: in vivo, Persian speedwell (Veronica persica); settings: foliage application, 320 g/ha, three weeks after application
In short: as §1

windgrass [19] = test: Test Example 5: herbicidal effect by foliage application, plastic box (Table 20, symbol L); assay type: in vivo, windgrass (Apera spica-venti); settings: foliage application, 320 g/ha, three weeks after application
In short: as §1

oval-leafed pondweed = test: Test Example 1: herbicidal activity, application before weed generation under submerged conditions (Table 16, symbol C); assay type: in vivo, oval-leafed pondweed (Monochoria vaginalis); settings: amount of applied herbicide 320 g/ha
In short: as §3

green foxtail [20] = test: Test Example 4: herbicidal effect by soil treatment (Table 19, symbol G); assay type: in vivo, green foxtail (Setaria viridis); settings: amount of applied herbicide 320 g/ha
In short: as §2

Italian ryegrass [21] = test: Test Example 5: herbicidal effect by foliage application, plastic box (Table 20, symbol K); assay type: in vivo, Italian ryegrass (Lolium multiflorum); settings: foliage application, 320 g/ha, three weeks after application
In short: as §1

SMILES	herbicidal effect on lambsquarters (O) (lambsquarters [1])	N: redroot pigweed, herbicidal effect grade (redroot pigweed)	Herbicidal effect, B: Japanese bulrush (Japanese bulrush)	herbicidal effect on rice flat sedge (E) (rice flat sedge)	herbicidal effect on velvetleaf (M) (velvetleaf [2])	R: persian speedwell, herbicidal effect grade (persian speedwell [3])	I: wild oat, herbicidal effect grade (wild oat [4])	F: southern crabgrass, herbicidal effect grade (southern crabgrass [5])	herbicidal effect on barnyard grass (H) (barnyard grass [6])	P: chickweed, herbicidal effect grade (chickweed)	Herbicidal effect, A: late watergrass (late watergrass)	herbicidal effect on Chinese sprangletop (D) (Chinese sprangletop)	herbicidal effect on southern crabgrass (F) (southern crabgrass [7])	J: blackgrass, herbicidal effect grade (blackgrass [8])	herbicidal effect on wild oat (I) (wild oat [9])	H: barnyard grass, herbicidal effect grade (barnyard grass [10])	L: windgrass, herbicidal effect grade (windgrass [11])	K: Italian ryegrass, herbicidal effect grade (Italian ryegrass [12])	M: velvetleaf, herbicidal effect grade (velvetleaf [13])	herbicidal effect on barnyard grass (H) (barnyard grass [14])	further results
CCOc1cc(F)ccc1-c1sc2cc(Cl)c(Cl)cc2c1-c1c(O)c(C)nn(C)c1=O [5-053]	3 (Herbicidal rate of 40% or more and less than 70%)	3 (Herbicidal rate of 40% or more and less than 70%)	3 (Herbicidal rate of 40% or more and less than 70%)	5 (Herbicidal rate of 90% or more (almost completely withered))	5 (Herbicidal rate of 90% or more (almost completely withered))	1 (Herbicidal rate of 5% or more and less than 20%)	0 (Herbicidal rate of 5% or less (almost no effect))	0 (Herbicidal rate of 5% or less (almost no effect))	1 (Herbicidal rate of 5% or more and less than 20%)	0 (Herbicidal rate of 5% or less (almost no effect))	0 (Herbicidal rate of 5% or less (almost no effect))	3 (Herbicidal rate of 40% or more and less than 70%)	3 (Herbicidal rate of 40% or more and less than 70%)	0 (Herbicidal rate of 5% or less (almost no effect))	0 (Herbicidal rate of 5% or less (almost no effect))	0 (Herbicidal rate of 5% or less (almost no effect))	0 (Herbicidal rate of 5% or less (almost no effect))	0 (Herbicidal rate of 5% or less (almost no effect))	0 (Herbicidal rate of 5% or less (almost no effect))	3 (Herbicidal rate of 40% or more and less than 70%)	herbicidal effect on blackgrass (J) (blackgrass [15]): 0 (Herbicidal rate of 5% or less (almost no effect)); herbicidal effect on green foxtail (G) (green foxtail [16]): 4 (Herbicidal rate of 70% or more and less than 90%); O: lambsquarters, herbicidal effect grade (lambsquarters [17]): 0 (Herbicidal rate of 5% or less (almost no effect)); herbicidal effect on persian speedwell (R) (persian speedwell [18]): 5 (Herbicidal rate of 90% or more (almost completely withered)); herbicidal effect on windgrass (L) (windgrass [19]): 3 (Herbicidal rate of 40% or more and less than 70%); Herbicidal effect, C: oval-leafed pondweed (oval-leafed pondweed): 0 (Herbicidal rate of 5% or less (almost no effect)); G: green foxtail, herbicidal effect grade (green foxtail [20]): 0 (Herbicidal rate of 5% or less (almost no effect)); herbicidal effect on Italian ryegrass (K) (Italian ryegrass [21]): 0 (Herbicidal rate of 5% or less (almost no effect))
COc1ccc(-c2sc3cc(OC)c(Cl)cc3c2-c2c(O)c(C)nn(C)c2=O)cc1 [5-070]	0 (Herbicidal rate of 5% or less (almost no effect))	0 (Herbicidal rate of 5% or less (almost no effect))	2 (Herbicidal rate of 20% or more and less than 40%)	0 (Herbicidal rate of 5% or less (almost no effect))	0 (Herbicidal rate of 5% or less (almost no effect))	3 (Herbicidal rate of 40% or more and less than 70%)	0 (Herbicidal rate of 5% or less (almost no effect))	0 (Herbicidal rate of 5% or less (almost no effect))	0 (Herbicidal rate of 5% or less (almost no effect))	1 (Herbicidal rate of 5% or more and less than 20%)	0 (Herbicidal rate of 5% or less (almost no effect))	0 (Herbicidal rate of 5% or less (almost no effect))	0 (Herbicidal rate of 5% or less (almost no effect))	0 (Herbicidal rate of 5% or less (almost no effect))	0 (Herbicidal rate of 5% or less (almost no effect))	0 (Herbicidal rate of 5% or less (almost no effect))	0 (Herbicidal rate of 5% or less (almost no effect))	0 (Herbicidal rate of 5% or less (almost no effect))	0 (Herbicidal rate of 5% or less (almost no effect))	3 (Herbicidal rate of 40% or more and less than 70%)	herbicidal effect on blackgrass (J) (blackgrass [15]): 0 (Herbicidal rate of 5% or less (almost no effect)); herbicidal effect on green foxtail (G) (green foxtail [16]): 0 (Herbicidal rate of 5% or less (almost no effect)); O: lambsquarters, herbicidal effect grade (lambsquarters [17]): 0 (Herbicidal rate of 5% or less (almost no effect)); herbicidal effect on persian speedwell (R) (persian speedwell [18]): 4 (Herbicidal rate of 70% or more and less than 90%); herbicidal effect on windgrass (L) (windgrass [19]): 0 (Herbicidal rate of 5% or less (almost no effect)); Herbicidal effect, C: oval-leafed pondweed (oval-leafed pondweed): 0 (Herbicidal rate of 5% or less (almost no effect)); G: green foxtail, herbicidal effect grade (green foxtail [20]): 0 (Herbicidal rate of 5% or less (almost no effect)); herbicidal effect on Italian ryegrass (K) (Italian ryegrass [21]): 0 (Herbicidal rate of 5% or less (almost no effect))
